PubChem BioAssay (NCI)
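Values below derive from 48-hour exposures of cells grown in 96-well plates, with endpoints linearly interpolated between the two concentrations bracketing the appropriate inhibition level. Here, GI50 denotes the concentration required for 50% inhibition of growth. Definition used: TGI = concentration required for complete inhibition of growth.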

Assays:
Test in all cases: inhibition of tumour cell growth, NCI panel, 48 h
[1] = system: SW-620 colon
[2] = system: OVCAR-3 ovarian
[3] = system: SNB-75 CNS
[4] = system: NCI-H460 lung
[5] = system: HT29 colon
[6] = system: KM20L2 colon
[7] = system: RXF 393 renal
[8] = system: NCI-H226 lung
[9] = system: SK-OV-3 ovarian
[10] = system: LOX IMVI melanoma
[11] = system: SNB-19 CNS
[12] = system: SR leukemia
[13] = system: OVCAR-4 ovarian
[14] = system: NCI-H23 lung
[15] = system: HCT-116 colon
[16] = system: SF-539 CNS
[17] = system: HL-60(TB) leukemia
[18] = system: UACC-62 melanoma
[19] = system: ACHN renal
[20] = system: TK-10 renal
[21] = system: HCT-15 colon
[22] = system: SF-268 CNS
[23] = system: CAKI-1 renal
[24] = system: EKVX NSCLC
[25] = system: NCI-H522 lung
[26] = system: HOP-62 NSCLC
[27] = system: KM12 colon
[28] = system: IGROV1 ovarian
[29] = system: SF-295 CNS
[30] = system: SK-MEL-2 melanoma
[31] = system: UO-31 renal
[32] = system: A549 NSCLC
[33] = system: COLO 205 colon
[34] = system: M14 melanoma
[35] = system: OVCAR-8 ovarian
[36] = system: HCC-2998 colon
[37] = system: OVCAR-5 ovarian
[38] = system: HOP-92 NSCLC
[39] = system: UACC-257 melanoma
[40] = system: PC-3 prostate
[41] = system: CCRF-CEM leukemia
[42] = system: MDA-MB-231 breast
[43] = system: MALME-3M melanoma
[44] = system: 786-0 renal
[45] = system: A498 renal
[46] = system: SN12C renal
[47] = system: T-47D breast
[48] = system: NCI/ADR-RES ovarian
[49] = system: U251 CNS
[50] = system: MCF7 breast
[51] = system: HS 578T breast
[52] = system: MOLT-4 leukemia
[53] = system: MDA-N
[54] = system: K-562 leukemia
[55] = system: SK-MEL-5 melanoma
[56] = system: MDA-MB-435
[57] = system: SK-MEL-28 melanoma
[58] = system: BT-549 breast
[59] = system: RPMI-8226 leukemia
[60] = system: DU-145 prostate

`O=C(N/N=C/c1cc(Cl)cc(Cl)c1[O-])c1ccccc1O.O=C(N/N=C/c1cc(Cl)cc(Cl)c1[O-])c1ccccc1O.[Cl-].[Fe+3]` gave a TGI [1] of 29.9 µM, a TGI [2] of 27 µM and a TGI [3] of 60.4 µM. For the same molecule, the TGI [4] was 36 µM, the TGI [5] was 34.8 µM and the GI50 [6] was 10.7 µM. The TGI [6] was 24 µM, the TGI [7] was 23.7 µM and the TGI [8] was 20.5 µM. It also gave a TGI [9] of 29.2 µM, a TGI [10] of 30.9 µM and a TGI [11] of 22.7 µM. The TGI [12] was 25.3 µM, the TGI [13] was 26.6 µM and the GI50 [14] was 7.73 µM. It also gave a TGI [14] of 25.7 µM, a GI50 [15] of 5.78 µM and a TGI [15] of 18.9 µM. It also gave a GI50 [16] of 10.5 µM, a TGI [16] of 27.9 µM and a TGI [17] of 5.22 µM. The TGI [18] was 33.6 µM, the TGI [19] was 38.5 µM and the TGI [20] was > 100 µM. The TGI [21] was 18.7 µM, the TGI [22] was 69.8 µM and the TGI [23] was > 100 µM. It also gave a GI50 [24] of 29.3 µM, a TGI [24] of 88.3 µM and a TGI [25] of 31.5 µM. For the same molecule, the TGI [26] was 36.2 µM, the GI50 [27] was 12.6 µM and the TGI [27] was 37.9 µM. It also gave a TGI [28] of 48.4 µM, a TGI [29] of 22.4 µM and a GI50 [30] of 17.1 µM. It also gave a TGI [30] of 37.1 µM, a TGI [31] of 31.7 µM and a GI50 [32] of 10.2 µM. The TGI [32] was 63.8 µM, the GI50 [33] was 19.4 µM and the TGI [33] was 44.4 µM. It also gave a TGI [34] of 35.3 µM, a TGI [35] of 25.9 µM and a TGI [36] of 23.5 µM. For the same molecule, the TGI [37] was 26 µM, the GI50 [38] was 1.95 µM and the TGI [38] was 7.18 µM. It also gave a TGI [39] of 51.2 µM.
With `COc1ccc2nc3cccc([N+](=O)[O-])c3c(NCCNCCO)c2c1` the GI50 [1] was 0.0198 µM, the TGI [1] was 0.61 µM and the GI50 [2] was 0.0265 µM. For the same molecule, the TGI [2] was 0.0667 µM, the GI50 [3] was 0.0367 µM and the TGI [3] was 0.151 µM. The GI50 [4] was 0.0114 µM, the TGI [4] was 0.102 µM and the GI50 [5] was 0.012 µM. The TGI [5] was 0.0991 µM, the TGI [40] was 0.13 µM and the GI50 [7] was 0.0187 µM. It also gave a TGI [7] of 0.0474 µM, a GI50 [8] of 0.0522 µM and a TGI [8] of 0.34 µM. It also gave a GI50 [41] of 0.024 µM, a TGI [41] of 0.173 µM and a GI50 [42] of 0.411 µM. It also gave a TGI [42] of 8.25 µM, a GI50 [43] of 0.025 µM and a TGI [43] of 0.124 µM. It also gave a GI50 [9] of 0.0459 µM, a TGI [9] of 0.388 µM and a GI50 [44] of 0.0212 µM. For the same molecule, the TGI [44] was 0.102 µM, the GI50 [10] was 0.0184 µM and the TGI [10] was 0.0721 µM. It also gave a GI50 [45] of 0.0262 µM, a TGI [45] of 0.0709 µM and a GI50 [11] of 0.13 µM. The TGI [11] was 0.636 µM, the GI50 [12] was 0.0167 µM and the TGI [12] was 3.28 µM. The GI50 [13] was 0.0199 µM, the TGI [13] was 0.0515 µM and the GI50 [14] was 0.104 µM. The TGI [14] was 2.7 µM, the GI50 [15] was 0.0196 µM and the TGI [15] was 0.753 µM. For the same molecule, the GI50 [16] was 0.0433 µM, the TGI [16] was 0.186 µM and the GI50 [17] was 0.0212 µM. The TGI [17] was 4.14 µM, the GI50 [46] was 0.0468 µM and the TGI [46] was 0.306 µM. For the same molecule, the GI50 [18] was 0.0162 µM, the TGI [18] was 0.0397 µM and the GI50 [47] was 0.0813 µM. It also gave a TGI [47] of 0.619 µM, a GI50 [19] of 0.0159 µM and a TGI [19] of 0.0701 µM. For the same molecule, the GI50 [48] was 0.66 µM, the TGI [48] was 6.7 µM and the GI50 [20] was 0.0291 µM. The TGI [20] was 0.272 µM, the GI50 [21] was 0.206 µM and the GI50 [22] was 0.0184 µM. The TGI [22] was 0.0925 µM, the GI50 [23] was 0.0396 µM and the TGI [23] was 0.502 µM. The GI50 [24] was 0.104 µM, the TGI [24] was 0.426 µM and the TGI [25] was 0.0146 µM. The GI50 [49] was 0.0226 µM, the TGI [49] was 0.155 µM and the GI50 [26] was 0.0352 µM. The TGI [26] was 0.169 µM, the GI50 [27] was 0.06 µM and the TGI [27] was 0.25 µM. It also gave a GI50 [50] of 0.0102 µM, a TGI [50] of 0.1 µM and a GI50 [28] of 0.0173 µM. For the same molecule, the TGI [28] was 0.0717 µM, the GI50 [29] was 0.0238 µM and the TGI [29] was 0.188 µM. It also gave a GI50 [30] of 0.0167 µM, a TGI [30] of 0.0344 µM and a GI50 [51] of 0.0501 µM. It also gave a TGI [51] of 0.361 µM, a GI50 [52] of 0.0207 µM and a TGI [52] of 0.229 µM. The GI50 [31] was 0.106 µM, the TGI [31] was 0.336 µM and the GI50 [32] was 0.0274 µM. It also gave a TGI [32] of 0.119 µM, a GI50 [53] of 0.037 µM and a TGI [53] of 0.156 µM. It also gave a GI50 [33] of 0.0137 µM, a TGI [33] of 0.0545 µM and a GI50 [34] of 0.0198 µM. The TGI [34] was 0.0534 µM, the GI50 [54] was 0.0153 µM and the TGI [54] was 0.121 µM. The GI50 [55] was 0.0113 µM, the TGI [55] was 0.0258 µM and the GI50 [56] was 0.0256 µM. The TGI [56] was 0.0903 µM, the GI50 [35] was 0.013 µM and the TGI [35] was 0.151 µM. The GI50 [57] was 0.102 µM, the TGI [57] was 0.352 µM and the GI50 [36] was 0.0417 µM. It also gave a TGI [36] of 0.206 µM, a GI50 [37] of 0.0327 µM and a TGI [37] of 0.185 µM. For the same molecule, the GI50 [38] was 0.023 µM, the TGI [38] was 0.0649 µM and the GI50 [39] was 0.0518 µM. It also gave a TGI [39] of 0.189 µM, a GI50 [58] of 0.051 µM and a TGI [58] of 0.173 µM. For the same molecule, the GI50 [59] was 0.0198 µM, the TGI [59] was 0.111 µM and the GI50 [60] was 0.0104 µM. For the same molecule, the TGI [60] was 0.746 µM.
